# Legend:
# [1] = tested on: Laser-induced Choroidal Neovascularization (CNV); assay: Laser-induced Choroidal Neovascularization (CNV) in Rat (CNV Assay); format: in vivo
# Experimental: Laser-induced Choroidal Neovascularization (CNV) in Rat (CNV Assay). CNV was induced and quantified in this model as previously described (Edelman and Castro. Exp. Eye Res. 2000; 71:523-533). On day 0, male Brown Norway rats (200-300 g) were anesthetized with 100 mg/kg Ketamine and 10 mg/kg Xylazine, and pupils were dilated with 1% Tropicamide. Using the blue-green setting of a Coherent Novus Argon Laser, 3 laser bums (90 mW for 0.1 s; 100 μm diameter) were given to each eye between the retinal vessels around the optic nerve head. […]
# On day 10, rats were sacrificed with 100% CO2, and blood vessels were labeled by vascular perfusion with 10 mg/ml FITC-dextran (MW 2×10^6). Using an epifluorescence microscope (20×) coupled to a spot digital camera and a PC, images were obtained from the flat mounts of the RPE-choroid-sclera from each eye, and the area occupied by hyperfluorescent neovessels within each laser lesion was measured using ImagePro 4 software.
# (§1) To determine the dose required for 50% inhibition (ID50), the percent inhibition data was plotted as a function of oral dose, using the ‘best-fit’ analysis within MicroSoft Excel software. The ID50 value was verified visually by using the plotted data (horizontal line from 50% y value, at intersection with best-fit line drop vertical line to x axis (dose)).
# [2] = molecular target: T1, cytoplasmic domain of the human VEGF receptor (VEGFR-2) (Homo sapiens, UniProt P35968); assay: KDR Assay; format: biochemical; conditions: His-VEGFR-2; 3.6 μM ATP
# T1 construct: The cytoplasmic domain of the human VEGF receptor (VEGFR-2) was expressed as a Histidine-tagged fusion protein; Histidine tag
# Summary of the method: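 His-tagged human VEGFR-2 cytoplasmic domain from baculovirus-infected insect cells, acting on poly-Glu-Tyr (4:1)-coated plates with 3.6 μM ATP in Hepes pH 7.4 with MgCl2/MnCl2 and 5% final DMSO, 10 min at 25 °C. Phosphotyrosine detected by peroxidase-conjugated antibody ELISA at 492 nm; IC50 from blank-subtracted OD versus concentration.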
# [3] = tested on: VEGF induced increases in intracellular calcium levels in HUVEC (human umbilical vein endothelial cells); assay: VEGF Stimulated Ca++ Signal in vitro (FLIPR); format: cell-based; conditions: VEGF 5 ng/mL; for IC50: 0.01 to 10.0 μM
# Summary of the method: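 HUVEC loaded with Fluo-4 (45 min, 37° C.), washed, then pre-incubated 30 min with compound (10 μM single dose or 0.01–10.0 μM; 0.1% DMSO) before 5 ng/mL VEGF. Fluorescence at 516 nm read by FLIPR; IC50 from % inhibition of max-min VEGF response.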
# [4] = tested on: VEGF-induced EBD extravasation; assay: VEGF-induced Dermal Extravasation in Guinea Pig (Miles Assay); format: in vivo
# Experimental: VEGF-induced Dermal Extravasation in Guinea Pig (Miles Assay). Male Hartley guinea pigs (300-600 g) were anesthetized with isofluorane, sheared, and given a single dose of drug or the respective vehicle. The guinea pigs were dosed orally unless indicated otherwise in Table 3. Ten minutes prior to the end of drug treatment, guinea pigs were anesthetized with isofluorane, and 0.5% Evans blue dye (EBD) in PBS (13-15 mg/kg dose of EBD) was injected intravenously. After 5 minutes, triplicate intradermal injections of 100 ng rhVEGF165 in 100 μl PBS and of 100 μl PBS alone were administered on the flank. After 20 minutes, each animal was euthanized with Pentosol, and the skin containing the intradermal injection sites was removed for image analysis.
# Using an analog video camera coupled to a PC, an image of each trans-illuminated skin sample was captured, and the integrated optical density of each injection site was measured using ImagePro 4. For each skin sample, the difference between the mean optical density of the VEGF sites and mean optical density of the PBS sites is the measure of VEGF-induced EBD extravasation in that animal. These measured values were averaged per study group to determine the mean VEGF-induced EBD extravasation for each experimental condition, and the group means were then compared to assess inhibition of VEGF-induced EBD extravasation in the drug-treated groups relative to the vehicle-treated controls.
# as §1
# T1 sequence (P35968 786-1356): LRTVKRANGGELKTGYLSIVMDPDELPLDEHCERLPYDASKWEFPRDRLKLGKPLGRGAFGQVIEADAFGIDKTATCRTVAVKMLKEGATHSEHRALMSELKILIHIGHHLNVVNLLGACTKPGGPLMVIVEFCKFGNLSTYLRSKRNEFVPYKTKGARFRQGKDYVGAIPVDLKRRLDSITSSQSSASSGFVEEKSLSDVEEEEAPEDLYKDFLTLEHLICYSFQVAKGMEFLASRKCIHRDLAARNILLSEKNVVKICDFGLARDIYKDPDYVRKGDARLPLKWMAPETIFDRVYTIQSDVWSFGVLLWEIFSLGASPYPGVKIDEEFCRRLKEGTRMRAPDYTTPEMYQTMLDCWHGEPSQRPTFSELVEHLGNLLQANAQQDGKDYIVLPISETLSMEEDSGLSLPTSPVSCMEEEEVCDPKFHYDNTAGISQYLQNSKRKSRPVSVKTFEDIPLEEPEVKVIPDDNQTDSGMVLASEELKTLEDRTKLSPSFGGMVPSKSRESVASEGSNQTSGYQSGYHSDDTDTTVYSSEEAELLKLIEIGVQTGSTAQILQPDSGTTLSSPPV
Compound,IC50 [2] [nM],inhibition at 10 µM ([3]; Homo sapiens) [%],"Miles Assay % inhibition ([4]; 75 mg/kg, PEG400, oral) [%]","Miles Assay % inhibition ([4]; 75 mg/kg, corn oil, oral) [%]","CNV Assay % inhibition ([1]; 80 mg/kg (sid), corn oil, oral) [%]",also measured
O=C1Nc2ccccc2C1=CNc1ccc(N2CCOCC2)cc1 [Example 40],250,96.7,100,47,,"CNV Assay % inhibition ([1]; 20 mg/kg (bid), PEG400, oral): 95%; CNV Assay % inhibition ([1]; 20 mg/kg (sid), PEG400, oral): 54%; CNV Assay % inhibition ([1]; 40 mg/kg (sid), PEG400, oral): 96%; CNV Assay % inhibition ([1]; 50 mg/kg (bid), corn oil, oral): 92%; CNV Assay % inhibition (toxicity noted) ([1]; 100 mg/kg (sid), PEG400, oral): toxic; CNV Assay % inhibition ([1]; 100 mg/kg (sid), corn oil, oral): 74%; CNV Assay ID50 (mg/kg) ([1]; oral dose for 50% inhibition): ˜20 mg/kg; Miles Assay % inhibition ([4]; 1 mg/kg, I.V. bolus in 20% methyl cyclodextrin, preincubation period 0.5 h): 0%; Miles Assay % inhibition ([4]; 1 mg/kg, I.V. bolus in 20% methyl cyclodextrin, preincubation period 1 h): 0%; Miles Assay % inhibition ([4]; 1 mg/kg, I.V. bolus in 20% methyl cyclodextrin, preincubation period 2 h): 0%; Miles Assay % inhibition ([4]; 10 mg/kg, 43% methyl cyclodextrin, preincubation period 1 h): 6%; Miles Assay % inhibition ([4]; 75 mg/kg, homogenized corn oil, oral): 40%; Miles Assay % inhibition ([4]; 75 mg/kg, micronized corn oil, oral): 52%; Miles Assay ID50 ([4]; oral dose for 50% inhibition): 18 mg/kg"
"CC1CN(c2ccc(NC=C3C(=O)Nc4ccccc43)cc2)CC(C)O1 (centres unmarked) [Example 159, 3-{[4-(2,6-Dimethyl-morpholin-4-yl)-phenylamino]-methylene}-1,3-dihydro-indol-2-one]",350,97.4,91,,,"CNV Assay % inhibition ([1]; 100 mg/kg (sid), 10% DMAC, 10% NMP, 80% PEG400, oral): 41%; IC50 [3]: 580 nM; IC50 ([3]; Homo sapiens): ≤ 1000 nM"
"O=C1Nc2ccccc2C1=CNc1ccc(OCCCCN2CCCCC2)cc1 [Example 209, 3-{[4-(4-Piperidin-1-yl-butoxy)-phenylamino]-methylene}-1,3-dihydro-indol-2-one]",240,98.6,79,84,95,
"O=C1Nc2ccccc2C1=CNc1ccc(OCCCN2CCCCC2)cc1 [Example 218, 3-{[4-(3-Piperidin-1-yl-propoxy)-phenylamino]-methylene}-1,3-dihydro-indol-2-one]",170,98.1,99,97,99,"CNV Assay % inhibition ([1]; 9.3 mg/kg (sid), corn oil, oral): 33%; CNV Assay % inhibition ([1]; 38.5 mg/kg (sid), corn oil, oral): 68%; CNV Assay ID50 ([1]; oral dose for 50% inhibition): 17 mg/kg"
"CCN(CC)CCCOc1ccc(NC=C2C(=O)Nc3cccc(C)c32)cc1 [Example 231, 3-{[4-(3-Diethylamino-propoxy)-phenylamino]-methylene}-4-methyl-1,3-dihydro-indol-2-one]",70,93.3,,93,85,
"CCN(CC)CCCOc1ccc(NC=C2C(=O)Nc3cc(F)ccc32)cc1 [Example 234, 3-{[4-(3-Diethylamino-propoxy)-phenylamino]-methylene}-6-fluoro-1,3-dihydro-indol-2-one]",110,96.1,,95,97,"CNV Assay % inhibition ([1]; 8.6 mg/kg (sid), corn oil, oral): 18%; CNV Assay % inhibition ([1]; 35 mg/kg (sid), corn oil, oral): 76%; CNV Assay ID50 ([1]; oral dose for 50% inhibition): 19 mg/kg"
"O=C1Nc2ccccc2C1=CNc1ccc(NCCN2CCOCC2)cc1 [Example 235, 3-{[4-(2-Morpholin-4-yl-ethylamino)-phenylamino]-methylene}-1,3-dihydro-indol-2-one]",240,98.2,,99,,"CNV Assay % inhibition ([1]; 40 mg/kg (sid), corn oil, oral): 63%"
"O=C1Nc2cc(F)ccc2C1=CNc1ccc(OCCCN2CCCCC2)cc1 [Example 239, 6-Fluoro-3-{[4-(3-piperidin-1-yl-propoxy)-phenylamino]-methylene}-1,3-dihydro-indol-2-one]",150,97.7,,100,,"CNV Assay % inhibition ([1]; 40 mg/kg (sid), corn oil, oral): 56%"

# Reference: patent US20030225152A1, “3-(Arylamino)methylene-1, 3-dihydro-2h-indol-2-ones as kinase inhibitors” (priority 2001, published 2003)
